Results: PMC4381587, “A novel PI3K inhibitor PIK-C98 displays potent preclinical activity against multiple myeloma” (Oncotarget, 2014)
pIC50: −log10 of the molar value.

Experiments:
[1] = target: recombinant human PI3K isoform α (Homo sapiens, UniProt P42336); experiment: Kinase activity in cell-free assay (HotSpot), PI3Kα; assay type: biochemical; details: read-out: IC50 against PI3K α isoform
Experimental: (§1) To confirm this hypothesis, the inhibitory potency of C98 on PI3K enzymes was measured in a cell-free system with individual recombinant human PI3K isoforms. […] To further evaluate its specificity on PI3K, the effects of C98 on other associated kinases AKT, PDK1, and mTOR were also measured in the enzymatic systems. […] Therefore, C98 preferred to inhibit PI3K activity.
(§2) Figure 1 C98 inhibits PI3K activity (A) Chemical structure of C98. (B) OPM2 cells were starved overnight and then treated with six compounds identified from the virtual screening for 2 hr, followed by IGF-1 stimulation for 15 min. Cell lysates were prepared for AKT expression and phosphorylation analyses. The known PI3K inhibitor S14161 was used as a positive control. (C) OPM2 cells were starved overnight, then treated with C98 at indicated concentration (25, 50 and 100 μM) or S14161 (100 μM) for 2 hr, followed by IGF-1 (100 ng/mL) stimulation for 15 min Cell lysates were prepared for AKT expression and phosphorylation analyses. […] Activity of each kinase was determined with HotSpot technology as described in the Methods section “Kinase activity in cell-free assay”. […]

[2] = target: recombinant human PI3K isoform δ (Homo sapiens, UniProt O00329); experiment: Kinase activity in cell-free assay (HotSpot), PI3Kδ; assay type: biochemical; details: read-out: IC50 against PI3K δ isoform
recombinant human PI3K isoform δ, sequence (O00329 whole entry, canonical isoform): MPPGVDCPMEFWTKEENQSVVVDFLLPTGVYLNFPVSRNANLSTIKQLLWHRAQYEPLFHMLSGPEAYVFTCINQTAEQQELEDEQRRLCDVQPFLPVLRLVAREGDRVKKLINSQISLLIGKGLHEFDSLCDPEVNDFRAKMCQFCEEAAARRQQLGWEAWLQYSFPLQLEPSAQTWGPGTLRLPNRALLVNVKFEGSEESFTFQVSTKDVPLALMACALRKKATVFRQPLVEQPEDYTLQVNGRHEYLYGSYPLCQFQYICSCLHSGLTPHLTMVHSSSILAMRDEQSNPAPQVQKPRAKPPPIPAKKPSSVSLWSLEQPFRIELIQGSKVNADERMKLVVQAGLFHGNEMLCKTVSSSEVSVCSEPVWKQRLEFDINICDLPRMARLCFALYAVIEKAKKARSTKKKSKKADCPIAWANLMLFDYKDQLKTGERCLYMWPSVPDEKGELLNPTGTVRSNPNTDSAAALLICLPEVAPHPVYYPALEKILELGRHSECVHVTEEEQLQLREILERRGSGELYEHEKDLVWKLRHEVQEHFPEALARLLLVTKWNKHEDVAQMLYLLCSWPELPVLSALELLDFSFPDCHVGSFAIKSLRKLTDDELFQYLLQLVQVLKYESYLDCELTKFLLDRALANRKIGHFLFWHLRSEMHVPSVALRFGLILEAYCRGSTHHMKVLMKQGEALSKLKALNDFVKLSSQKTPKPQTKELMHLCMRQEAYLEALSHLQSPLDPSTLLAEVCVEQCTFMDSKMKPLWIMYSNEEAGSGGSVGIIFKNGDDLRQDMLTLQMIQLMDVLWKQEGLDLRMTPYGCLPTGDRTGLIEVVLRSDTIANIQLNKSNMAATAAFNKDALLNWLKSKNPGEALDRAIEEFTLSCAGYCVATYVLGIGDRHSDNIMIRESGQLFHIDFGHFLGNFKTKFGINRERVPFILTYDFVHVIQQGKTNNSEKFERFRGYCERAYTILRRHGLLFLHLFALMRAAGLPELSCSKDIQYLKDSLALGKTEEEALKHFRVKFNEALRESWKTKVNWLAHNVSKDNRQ
recombinant human PI3K isoform δ, sequence (P27986 whole entry partner, canonical isoform): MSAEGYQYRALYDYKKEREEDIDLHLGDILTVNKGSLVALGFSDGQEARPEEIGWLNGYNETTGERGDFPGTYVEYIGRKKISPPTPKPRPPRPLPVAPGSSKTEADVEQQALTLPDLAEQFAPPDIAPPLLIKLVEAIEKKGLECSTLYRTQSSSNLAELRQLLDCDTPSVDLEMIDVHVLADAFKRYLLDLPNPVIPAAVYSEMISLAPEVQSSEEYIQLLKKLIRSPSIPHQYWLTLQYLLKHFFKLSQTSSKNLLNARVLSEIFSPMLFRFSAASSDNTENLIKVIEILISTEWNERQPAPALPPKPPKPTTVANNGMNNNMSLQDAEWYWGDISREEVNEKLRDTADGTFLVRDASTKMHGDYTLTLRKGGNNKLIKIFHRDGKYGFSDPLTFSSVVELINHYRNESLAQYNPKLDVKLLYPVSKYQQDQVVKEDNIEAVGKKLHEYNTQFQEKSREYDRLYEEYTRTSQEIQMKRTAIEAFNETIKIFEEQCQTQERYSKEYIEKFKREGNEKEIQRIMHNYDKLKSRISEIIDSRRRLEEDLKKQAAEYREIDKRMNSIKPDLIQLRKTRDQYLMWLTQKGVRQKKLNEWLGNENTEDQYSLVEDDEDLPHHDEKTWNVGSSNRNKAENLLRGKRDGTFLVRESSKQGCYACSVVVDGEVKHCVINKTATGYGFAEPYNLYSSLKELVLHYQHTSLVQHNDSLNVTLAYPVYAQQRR
Experimental: as §1, §2

mTOR = test system: T1, mTOR; experiment: Kinase activity in cell-free assay, mTOR; assay type: biochemical; details: enzymatic system, even at a concentration of 300 μM
T1 construct: purchased Reaction Biology Corp., Malvern, PA, USA
Experimental: as §1
Kinase activity in the presence of C98 was performed by using the HotSpot technology (Reaction Biology Corp., Malvern, PA, USA) as described previously.

[3] = test system: AKT phosphorylation in LP1 and JJN3 cells; experiment: Immunoblotting of AKT phosphorylation in starved, IGF-1-stimulated LP1 and JJN3 cells; assay type: cell-based; details: 2 hr, then IGF-1 100 ng/mL 15 min
Experimental: (§3) (B) LP1 and JJN3 cells were starved overnight, then treated with C98 or S14161 for 2 hr, followed by IGF-1 (100 ng/mL) for 15 min. Cells were then prepared for the analysis of the expression of p-AKT, t-AKT, p-IGF-1R, and IGF-1R by immunoblotting. (C) OPM2 and JJN3 cells were treated with increasing concentrations of C98 for 24 hr before being applied to immunoblotting against p-ERK, t-ERK, p-P38, t-P38, p-Src, t-Src, p-STAT3, or t-STAT3. GAPDH and β-actin were used as loading controls.
(§4) To find out whether C98 also interfered with other signaling pathways, we first checked the receptor tyrosine kinase IGF-1R, which mediates PI3K activation in MM cells in the presence of IGF-1. Starved MM cells LP1 and JJN3 were incubated with C98 followed by IGF-1 stimulation. […] Moreover, we also measured the expression of PTEN, a negative regulator of PI3K signaling, in MM cells after C98 treatment.
(§5) The immunoblotting assays were performed as described previously. IRDye 680 goat anti-mouse and IRDye 800CW goat anti-rabbit antibodies were from Odyssey (San Ramon, CA, USA).

IGF-1R = experiment: Immunoblotting of IGF-1R phosphorylation in starved, IGF-1-stimulated LP1 and JJN3 cells; assay type: cell-based; details: 100 μM, 2 hr, then IGF-1
Experimental: as §3, §4, §5

JJN3 cells = experiment: Immunoblotting of caspase-3 activation in JJN3 cells; assay type: cell-based, human; details: JJN3, 0-20 μM 24 hr or 10 μM 0-9 hr
Experimental: To answer whether C98 could induce apoptosis in other MM cells, 5 more MM cells were subject to the study. […] Cell apoptosis induced by C98 was further confirmed by the increased fraction of positive cells stained with Annexin V (Figure 5). To show whether activated PI3K signals can rescue C98 effects on MM cells, both OPM2 and RPMI-8226 cells were treated with IGF-1 alone or together with C98 for 48 hr followed by MTT assay.
Figure 4 C98 activates apoptotic signaling in MM cells (A) JJN3 cells were treated with C98 (0, 2.5, 5, 10, 20 μM) for 24 hr or 10 μM for 0, 3, 6, or 9 hr, followed by immunoblotting for the expression of p-AKT, t-AKT, pro-caspase-3 (Pro-Casp3), and cleaved caspase-3 (Cle-Casp3). (B) KMS11, LP1, OCI-My5, OPM2, JJN3, and RPMI-8226 were treated with C98 (20 μM) for 24 hr, followed by immunoblotting for the expression of PARP, Pro-Casp3, and Cle-Casp3. GAPDH was used as a loading control.
as §5

recombinant human PI3K isoform α, sequence (P42336 whole entry, canonical isoform): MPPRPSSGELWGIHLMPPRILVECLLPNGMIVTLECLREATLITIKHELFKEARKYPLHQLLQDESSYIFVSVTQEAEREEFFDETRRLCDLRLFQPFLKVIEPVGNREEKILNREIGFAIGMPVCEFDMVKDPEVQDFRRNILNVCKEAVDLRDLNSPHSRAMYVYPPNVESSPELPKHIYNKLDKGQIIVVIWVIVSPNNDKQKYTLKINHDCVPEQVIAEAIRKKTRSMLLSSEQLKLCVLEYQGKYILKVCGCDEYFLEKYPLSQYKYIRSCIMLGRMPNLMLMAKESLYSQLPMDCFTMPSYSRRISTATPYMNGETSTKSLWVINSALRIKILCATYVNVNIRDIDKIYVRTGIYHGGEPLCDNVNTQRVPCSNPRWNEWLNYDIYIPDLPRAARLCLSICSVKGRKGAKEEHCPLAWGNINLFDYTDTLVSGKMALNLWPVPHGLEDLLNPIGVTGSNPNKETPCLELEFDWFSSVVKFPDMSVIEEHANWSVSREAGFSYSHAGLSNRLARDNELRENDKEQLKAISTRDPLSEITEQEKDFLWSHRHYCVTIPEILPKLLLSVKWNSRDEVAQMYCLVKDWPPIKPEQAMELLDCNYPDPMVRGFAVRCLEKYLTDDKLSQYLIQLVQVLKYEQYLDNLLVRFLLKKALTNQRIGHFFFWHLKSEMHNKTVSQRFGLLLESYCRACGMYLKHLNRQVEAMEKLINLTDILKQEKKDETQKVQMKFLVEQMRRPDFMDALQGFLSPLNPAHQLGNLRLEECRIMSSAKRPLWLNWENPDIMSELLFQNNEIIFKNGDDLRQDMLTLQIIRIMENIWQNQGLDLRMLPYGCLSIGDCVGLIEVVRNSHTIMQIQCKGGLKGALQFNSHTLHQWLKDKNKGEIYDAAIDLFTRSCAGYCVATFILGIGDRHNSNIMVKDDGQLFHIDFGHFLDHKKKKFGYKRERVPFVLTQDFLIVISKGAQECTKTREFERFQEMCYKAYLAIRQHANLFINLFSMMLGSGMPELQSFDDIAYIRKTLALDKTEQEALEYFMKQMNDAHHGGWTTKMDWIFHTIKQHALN
recombinant human PI3K isoform α, sequence (P27986 whole entry partner, canonical isoform): as the sequence (P27986 whole entry partner, canonical isoform) above

Compound: N#C/C(=C\C=C\c1ccc(-c2cc(Cl)ccc2Cl)o1)C(N)=S [C98]
- pIC50 [1]: 6.23
- pIC50 [2]: 5.44
- suppression of mTOR activity (mTOR): failed to suppress
- AKT phosphorylation [3]: suppressed AKT phosphorylation
- IGF-1R activation (phosphorylation) (IGF-1R): had no effects on IGF-1R activation
- caspase-3 activation (JJN3 cells): activated caspase-3 in a time- and concentration-dependent manner
